Test results published in ChEMBL document CHEMBL5712922, “Synergistic effects of type I PRMT and PARP inhibitors against non-small cell lung cancer cells” (Clin Epigenetics, 2021).
Structures can show the parent of a compound that is named as a salt. Residues, ends and D or L forms follow the SMILES beside them.

tested on: A549; test: Antiproliferative against human A549 cells assessed as viable cells pretreated with MS023 for 24 hrs followed by compound addition at 10 uM measured after for 24 hrs relative to control; conditions: A549, 24 h, read-out: Activity

Compound | viability at 10 µM
CC(C)C[C@H](NC(=O)[C@H](Cc1ccccc1)NC(=O)[C@H](CCC(N)=O)NC(=O)[C@H](Cc1ccc(O)cc1)NC(=O)[C@H](C)NC(=O)CNC(=O)[C@H](CCCCN)NC(=O)[C@H](Cc1c[nH]c2ccccc12)NC(=O)[C@@H](NC(=O)[C@H](Cc1c[nH]c2ccccc12)NC(=O)[C@H](CCCCN)NC(=O)CNC(=O)[C@H](CC(N)=O)NC(=O)[C@H](CCC(=O)O)NC(=O)[C@H](Cc1c[nH]c2ccccc12)NC(=O)[C@@H](NC(=O)[C@H](Cc1c[nH]c2ccccc12)NC(=O)[C@H](CO)NC(=O)CNC(=O)[C@@H]1CCCN1C(=O)[C@H](Cc1c[nH]c2ccccc12)NC(=O)[C@H](CCC(N)=O)NC(=O)[C@H](Cc1ccccc1)NC(=O)CNC(=O)[C@@H](N)Cc1cnc[nH]1)[C@@H](C)O)[C@@H](C)O)C(=O)N[C@@H](CCCCN)C(=O)NCC(=O)NCC(=O)NCC(=O)NCC(=O)N[C@@H](CO)C(=O)N[C@@H](CCCNC(=N)N)C(=O)N[C@@H](CCCNC(=N)N)C(=O)N[C@@H](CCCNC(=N)N)C(=O)N[C@@H](CCCNC(=N)N)C(=O)N[C@@H](CCCNC(=N)N)C(=O)N[C@@H](CCCNC(=N)N)C(=O)N[C@@H](CCCNC(=N)N)C(=O)N[C@@H](CCCNC(=N)N)C(=O)N[C@@H](CCCNC(=N)N)C(=O)O (H-HGFQWPGSWTWENGKWTWKGAYQFLKGGGGSRRRRRRRRR-OH) | 54.2%
COc1cc2c(cc1O)CC[C@@H]1[C@@H]2CC[C@]2(C)[C@@H](O)CC[C@@H]12 [2-METHOXYESTRADIOL] | 54.2%
NC(=O)c1cccc(N)c1 [3-AMINOBENZAMIDE] | 54.2%
CN(C)Cc1c(C(=O)NCCOc2ccc(C(=O)NO)cc2)oc2ccccc12 [ABEXINOSTAT] | 54.2%
COc1cc(Nc2ncc3c(n2)-c2ccc(Cl)cc2C(c2c(F)cccc2OC)=NC3)ccc1C(=O)O [ALISERTIB] | 54.2%
Cc1csc(-c2nnc(Nc3ccc(Oc4ncccc4-c4ccnc(N)n4)cc3)c3ccccc23)c1 [AMG-900] | 54.2%
CCCCCCCCCCCCCCCc1cccc(O)c1C(=O)O [ANACARDIC ACID] | 54.2%
COc1cc(OC)c2c(=O)[nH]c(-c3cc(C)c(OCCO)c(C)c3)nc2c1 [APABETALONE] | 54.2%
CC(C)[C@H](C(=O)Nc1ccc(C(=O)NO)cc1)c1ccccc1 [AR-42] | 54.2%
O=C(Nc1c[nH]nc1-c1nc2ccc(CN3CCOCC3)cc2[nH]1)NC1CC1 [AT-9283] | 54.2%
Nc1ncn([C@@H]2O[C@H](CO)[C@@H](O)[C@H]2O)c(=O)n1 [AZACITIDINE] | 54.2%
Cc1cc(Nc2nc(N[C@@H](C)c3ncc(F)cn3)ncc2Cl)[nH]n1 [AZD-1480] | 54.2%
CCS(=O)(=O)N1CC(CC#N)(n2cc(-c3ncnc4[nH]ccc34)cn2)C1 [BARICITINIB] | 54.2%
O=C(/C=C/c1cccc(S(=O)(=O)Nc2ccccc2)c1)NO [BELINOSTAT] | 54.2%
Cc1sc2c(c1C)C(c1ccc(Cl)cc1)=N[C@@H](CC(=O)Nc1ccc(O)cc1)c1nnc(C)n1-2 [BIRABRESIB] | 54.2%
Cc1cn([C@H]2O[C@@H](CO)[C@H](O)[C@H]2F)c(=O)[nH]c1=O [CLEVUDINE] | 54.2%
C#Cc1cccc(Nc2ncnc3cc(OC)c(OCCCCCCC(=O)NO)cc23)c1 [CUDC-101] | 54.2%
Cc1nc(N)sc1-c1ccnc(Nc2ccc(N3CCOCC3)cc2)n1 [CYC-116] | 54.2%
Nc1ccn([C@@H]2O[C@H](CO)[C@@H](O)[C@@H]2O)c(=O)n1 [CYTARABINE] | 54.2%
O=C(/C=C/c1ccc(CN(CCO)CCc2c[nH]c3ccccc23)cc1)NO [DACINOSTAT] | 54.2%
CO[C@@H](C(=O)N1Cc2[nH]nc(NC(=O)c3ccc(N4CCN(C)CC4)cc3)c2C1)c1ccccc1 [DANUSERTIB] | 54.2%
O=c1ccc2ccc(O)c(O)c2o1 [DAPHNETIN] | 54.2%
CC[C@@](C)(Nc1ccnc(-c2c[nH]c3ncccc23)n1)C(=O)NCC(F)(F)F [DECERNOTINIB] | 54.2%
Nc1ncn([C@H]2C[C@H](O)[C@@H](CO)O2)c(=O)n1 [DECITABINE] | 54.2%

Compound | viability at 10 µM
CCN(CCO)CCCOc1ccc2c(Nc3cc(CC(=O)Nc4cccc(F)c4)[nH]n3)ncnc2c1 [DEFOSBARASERTIB] | 54.2%
Cn1cc(-c2ccc(S(=O)(=O)n3ccc(/C=C/C(=O)Nc4ccccc4N)c3)cc2)cn1 [DOMATINOSTAT] | 54.2%
O=c1oc2c(O)c(O)cc3c(=O)oc4c(O)c(O)cc1c4c23 [ELLAGIC ACID] | 54.2%
Cc1cc(Nc2cc(N3CCN(C)CC3)nc(/C=C/c3ccccc3)n2)n[nH]1 [ENMD-2076] | 54.2%
CCN(CC)C(=O)/C(C#N)=C/c1cc(O)c(O)c([N+](=O)[O-])c1 [ENTACAPONE] | 54.2%
Nc1ccccc1NC(=O)c1ccc(CNC(=O)OCc2cccnc2)cc1 [ENTINOSTAT] | 54.2%
Cc1cnc(Nc2ccc(OCCN3CCCC3)cc2)nc1Nc1cccc(S(=O)(=O)NC(C)(C)C)c1 [FEDRATINIB] | 54.2%
O=C(Nc1nc2cccc(-c3ccc(CN4CCS(=O)(=O)CC4)cc3)n2n1)C1CC1 [FILGOTINIB] | 54.2%
COc1ccc(-c2nc(N3CCOCC3)c3sc(CN(C)c4ncc(C(=O)NO)cn4)cc3n2)cn1 [FIMEPINOSTAT] | 54.2%
Cc1cc(Nc2cc(CN3CCOCC3)c3nc(C)c(Cc4ccc(Cl)cc4F)n3n2)n[nH]1 [GANDOTINIB] | 54.2%
Nc1ccn([C@@H]2O[C@H](CO)[C@@H](O)C2(F)F)c(=O)n1 [GEMCITABINE] | 54.2%
CCN(CC)Cc1ccc2cc(COC(=O)Nc3ccc(C(=O)NO)cc3)ccc2c1 [GIVINOSTAT] | 54.2%
CCn1cc(-c2ccnc3[nH]c(-c4cccc(CN(C)C)c4)cc23)c(-c2ccc(NC(=O)N(C)C)cc2)n1 [GSK-1070916] | 54.2%
CCS(=O)(=O)Nc1ccc2c(c1)/C(=C(/Nc1ccc(CN3CCCCC3)cc1)c1ccccc1)C(=O)N2 [HESPERADIN] | 54.2%
Nc1nc(Nc2ccc(S(N)(=O)=O)cc2)nn1C(=O)c1c(F)cccc1F [JNJ-7706621] | 54.2%
O=C(c1ccc(/C=C/c2n[nH]c3ccccc23)cc1)N1CCNCC1 [KW-2449] | 54.2%
Nc1nc(OCc2cc(Br)cs2)c2[nH]cnc2n1 [LOMEGUATRIB] | 54.2%
CO[C@@]12[C@H](COC(N)=O)C3=C(C(=O)C(C)=C(N)C3=O)N1C[C@@H]1N[C@@H]12 [MITOMYCIN] | 54.2%
NC(=O)c1ncn([C@@H]2O[C@H](CO)[C@@H](O)[C@H]2O)c1O [MIZORIBINE] | 54.2%
O=C(O)[C@]1(Cc2cccc(Nc3nccs3)n2)CC[C@@H](Oc2cccc(Cl)c2F)CC1 [MK-5108] | 54.2%
O=C(O)c1ccc(Nc2ncc3c(n2)-c2ccc(Cl)cc2C(c2c(F)cccc2F)=NC3)cc1 [MLN-8054] | 54.2%
Nc1ccccc1NC(=O)c1ccc(CNc2nccc(-c3cccnc3)n2)cc1 [MOCETINOSTAT] | 54.2%
CCNC(=O)C[C@@H]1N=C(c2ccc(Cl)cc2)c2cc(OC)ccc2-n2c(C)nnc21 [MOLIBRESIB] | 54.2%
N#CCNC(=O)c1ccc(-c2ccnc(Nc3ccc(N4CCOCC4)cc3)n2)cc1 [MOMELOTINIB] | 54.2%

Compound | viability at 10 µM
CCCCN(Cc1ccc(C(=O)NO)cc1)C(=O)Nc1ccccc1 [NEXTURASTAT A] | 54.2%
CCn1cc(C(=O)O)c(=O)c2cc(F)c(N3CCNCC3)cc21 [NORFLOXACIN] | 54.2%
CNS(=O)(=O)C[C@H]1CC[C@H](N(C)c2[nH]cnc3nccc2-3)CC1 [OCLACITINIB] | 54.2%
CC1COc2c(N3CCN(C)CC3)c(F)cc3c(=O)c(C(=O)O)cn1c23 (stereo unspecified) [OFLOXACIN] | 54.2%
C1=N/C2=N/c3ccc(OCCN4CCCC4)c(c3)COC/C=C/COCc3cccc(c3)C(=C1)N2 [PACRITINIB] | 54.2%
Cc1[nH]c2ccccc2c1CCNCc1ccc(/C=C/C(=O)NO)cc1 [PANOBINOSTAT] | 54.2%
CCc1cccc(CC)c1NC(=O)N1Cc2[nH]nc(NC(=O)c3ccc(N4CCN(C)CC4)cc3)c2C1 [PHA-680632] | 54.2%
CC(C)N(C[C@H]1O[C@@H](n2cnc3c(N)ncnc32)[C@H](O)[C@@H]1O)[C@H]1C[C@@H](CCc2nc3cc(C(C)(C)C)ccc3[nH]2)C1 [PINOMETOSTAT] | 54.2%
COc1cccc2c1C(=O)c1c(O)c3c(c(O)c1C2=O)C[C@@](O)(C(=O)CO)C[C@@H]3O[C@H]1C[C@H](N)[C@H](O[C@@H]2CCCCO2)[C@H](C)O1 [PIRARUBICIN] | 54.2%
CCCCc1nc2cc(/C=C/C(=O)NO)ccc2n1CCN(CC)CC [PRACINOSTAT] | 54.2%
CCN(CC)CCNC(=O)c1ccc(N)cc1 [PROCAINAMIDE HYDROCHLORIDE] | 54.2%
O=c1c(O)c(-c2ccc(O)c(O)c2)oc2cc(O)cc(O)c12 [QUERCETIN] | 54.2%
Cn1cc(CNCC2CCN(c3ncc(C(=O)NO)cn3)CC2)c2ccccc21 [QUISINOSTAT HYDROCHLORIDE] | 54.2%
CN(C)Cc1ccc(S(=O)(=O)n2ccc(/C=C/C(=O)NO)c2)cc1 [RESMINOSTAT] | 54.2%
Oc1ccc(/C=C/c2cc(O)cc(O)c2)cc1 [RESVERATROL] | 54.2%
O=C(CCCCCCNC(=O)c1cnc(N(c2ccccc2)c2ccccc2)nc1)NO [RICOLINOSTAT] | 54.2%
Cc1nc(C(=O)NCC(=O)O)c(O)c2ccc(Oc3ccccc3)cc12 [ROXADUSTAT] | 54.2%
N#CC[C@H](C1CCCC1)n1cc(-c2ncnc3[nH]ccc23)cn1 [RUXOLITINIB] | 54.2%
CN1CCC(CNc2ccc3ncc(-c4cccc(OC(F)(F)F)c4)n3n2)CC1 [SGI-1776] | 54.2%
CC(NC(=O)c1ccccc1/N=C/c1c(O)ccc2ccccc12)c1ccccc1 (stereo unspecified) [SIRTINOL] | 54.2%
O=C(Nc1cccc(Cl)c1)Nc1ncc(CCNc2ncnc3ccsc23)s1 [SNS-314 MESYLATE] | 54.2%
O=C(O)CCCc1ccccc1 [SODIUM PHENYLBUTYRATE] | 54.2%
CC(=O)Nc1ccc(C(=O)Nc2ccccc2N)cc1 [TACEDINALINE] | 54.2%
